What was measured:
[1] = test system: MDA-MB-468; assay: (§1) Inhibitory activity of compound against breast cancer cell line MDA 468, following 72 hr treatment; format: functional; conditions: Homo sapiens, MDA-MB-468, 72 h
[2] = test system: MCF7; assay: (§2) Inhibitory activity of compound against breast cancer cell line MCF-7, following 72 hr treatment; format: functional; conditions: Homo sapiens, MCF7, 72 h
[3] = test system: MCF7; assay: as §2; format: functional, cell-based; conditions: Homo sapiens, MCF7, 72 h
[4] = test system: MDA-MB-468; assay: as §1; format: functional, cell-based; conditions: Homo sapiens, MDA-MB-468, 72 h
[5] = test system: NCI-H522; assay: Compound tested for growth inhibition of non-small cell lung cancer cell line NCI-H522; format: functional; conditions: Homo sapiens
[6] = test system: RPMI-8226; assay: Compound tested for growth inhibition of leukemia cell line RPMI-8226; format: functional; conditions: Homo sapiens
[7] = test system: RXF 393; assay: Compound tested for growth inhibition of renal cancer cell line RFX 393; format: functional; conditions: Homo sapiens
[8] = test system: Hs-578T; assay: Compound tested for growth inhibition of breast cancer cell line HS 578T; format: functional; conditions: Homo sapiens
[9] = test system: UACC-62; assay: Compound tested for growth inhibition of melanoma cell line UACC-62; format: functional; conditions: Homo sapiens
[10] = test system: Malme-3M; assay: Compound tested for growth inhibition of melanoma cell line MALME-3M; format: functional; conditions: Homo sapiens
[11] = test system: A498; assay: Compound tested for growth inhibition of renal cancer cell line A498; format: functional; conditions: Homo sapiens
[12] = test system: HCC 2998; assay: Compound tested for growth inhibition of colon cancer cell line HCC2998; format: functional; conditions: Homo sapiens
[13] = test system: MDA-MB-435; assay: Compound tested for growth inhibition of breast cancer cell line MDA-MB-435; format: functional; conditions: Homo sapiens
[14] = test system: IGROV-1; assay: Compound tested for growth inhibition of ovarian cancer cell line […]; format: functional; conditions: Homo sapiens
[15] = test system: HCT-15; assay: Compound tested for growth inhibition of colon cancer cell line HCT-15; format: functional; conditions: Homo sapiens
[16] = test system: A549; assay: Compound tested for growth inhibition of non-small cell lung cancer cell line A549/ATCC; format: functional; conditions: Homo sapiens
[17] = test system: SF-268; assay: Compound tested for growth inhibition of CNS cancer cell line SF-268; format: functional; conditions: Homo sapiens
[18] = test system: BT-549; assay: Compound tested for growth inhibition of breast cancer cell line BT-549; format: functional; conditions: Homo sapiens
[19] = test system: OVCAR-3; assay: Compound tested for growth inhibition of ovarian cancer cell line OVCAR-3; format: functional; conditions: Homo sapiens
[20] = test system: UACC-257; assay: Compound tested for growth inhibition of melanoma cell line UACC-257; format: functional; conditions: Homo sapiens
[21] = test system: HOP-62; assay: Compound tested for growth inhibition of non-small cell lung cancer cell line HOP-62; format: functional; conditions: Homo sapiens
[22] = test system: U-251; assay: Compound tested for growth inhibition of CNS cancer cell line U251; format: functional; conditions: Homo sapiens
[23] = test system: UO-31; assay: Compound tested for growth inhibition of renal cancer cell line UO-31; format: functional; conditions: Homo sapiens
[24] = test system: SW-620; assay: Compound tested for growth inhibition of colon cancer cell line SW-620; format: functional; conditions: Homo sapiens
[25] = test system: KM12; assay: Compound tested for growth inhibition of colon cancer cell line KM12; format: functional; conditions: Homo sapiens
[26] = test system: T47D; assay: Compound tested for growth inhibition of breast cancer cell line T-47-D; format: functional; conditions: Homo sapiens
[27] = test system: MDA-MB-231; assay: Compound tested for growth inhibition of breast cancer cell line MDA-MB-231/ATCC; format: functional; conditions: Homo sapiens
[28] = test system: TK-10; assay: Compound tested for growth inhibition of renal cancer cell line TK-10; format: functional; conditions: Homo sapiens
[29] = test system: OVCAR-4; assay: Compound tested for growth inhibition of ovarian cancer cell line OVCAR-4; format: functional; conditions: Homo sapiens
[30] = test system: SK-MEL-5; assay: Compound tested for growth inhibition of melanoma cell line SK-MEL-5; format: functional; conditions: Homo sapiens
[31] = test system: SF-295; assay: Compound tested for growth inhibition of CNS cancer cell line SF-295; format: functional; conditions: Homo sapiens
[32] = test system: SK-MEL-28; assay: Compound tested for growth inhibition of melanoma cell line SK-MEL-28; format: functional; conditions: Homo sapiens
[33] = test system: MOLT-4; assay: Compound tested for growth inhibition of leukemia cell line MOLT-4; format: functional; conditions: Homo sapiens
[34] = test system: SN12C; assay: Compound tested for growth inhibition of renal cancer cell line SN12C; format: functional; conditions: Homo sapiens
[35] = test system: 786-0; assay: Compound tested for growth inhibition of renal cancer cell line 786-0; format: functional; conditions: Homo sapiens
[36] = test system: SF-539; assay: Compound tested for growth inhibition of CNS cancer cell line SF-539; format: functional; conditions: Homo sapiens
[37] = test system: MCF7; assay: Compound tested for growth inhibition of breast cancer cell line MCF-7; format: functional; conditions: Homo sapiens
[38] = test system: NCI-H322M; assay: Compound tested for growth inhibition of non-small cell lung cancer cell line NCI-H322M; format: functional; conditions: Homo sapiens
[39] = test system: PC-3; assay: Compound tested for growth inhibition of prostate cancer cell line PC-3; format: functional; conditions: Homo sapiens
[40] = test system: MDA-N; assay: Compound tested for growth inhibition of breast cancer cell line MDA-N; format: functional; conditions: Homo sapiens
[41] = test system: NCI-H226; assay: Compound tested for growth inhibition of non-small cell lung cancer cell line NCI-H226; format: functional; conditions: Homo sapiens
[42] = test system: SK-OV-3; assay: Compound tested for growth inhibition of ovarian cancer cell line SK-OV-3; format: functional; conditions: Homo sapiens
[43] = test system: ACHN; assay: Compound tested for growth inhibition of renal cancer cell line ACHN; format: functional; conditions: Homo sapiens
[44] = test system: OVCAR-5; assay: Compound tested for growth inhibition of ovarian cancer cell line OVCAR-5; format: functional; conditions: Homo sapiens
[45] = test system: M14; assay: Compound tested for growth inhibition of melanoma cell line M14; format: functional; conditions: Homo sapiens
[46] = test system: DU-145; assay: Compound tested for growth inhibition of prostate cancer cell line DU-145; format: functional; conditions: Homo sapiens
[47] = test system: SNB-75; assay: Compound tested for growth inhibition of CNS cancer cell line SNB-75; format: functional; conditions: Homo sapiens
[48] = test system: NCI-H460; assay: Compound tested for growth inhibition of non-small cell lung cancer cell line NCI-H460; format: functional; conditions: Homo sapiens
[49] = test system: SNB-19; assay: Compound tested for growth inhibition of CNS cancer cell line SNB-19; format: functional; conditions: Homo sapiens
[50] = test system: LOX IMVI; assay: Compound tested for growth inhibition of melanoma cell line LOX IMVI; format: functional; conditions: Homo sapiens
[51] = test system: CAKI-1; assay: Compound tested for growth inhibition of renal cancer cell line CAKI-1; format: functional; conditions: Homo sapiens
[52] = test system: OVCAR-8; assay: Compound tested for growth inhibition of ovarian cancer cell line OVCAR-8; format: functional; conditions: Homo sapiens
[53] = test system: HOP-92; assay: Compound tested for growth inhibition of non-small cell lung cancer cell line HOP-92; format: functional; conditions: Homo sapiens
[54] = test system: HCT-116; assay: Compound tested for growth inhibition of colon cancer cell line HCT116; format: functional; conditions: Homo sapiens
[55] = test system: K562; assay: Compound tested for growth inhibition of leukemia cell line K-562; format: functional; conditions: Homo sapiens
[56] = test system: HT-29; assay: Compound tested for growth inhibition of colon cancer cell line HT-29; format: functional; conditions: Homo sapiens
[57] = test system: SK-MEL-2; assay: Compound tested for growth inhibition of melanoma cell line SK-MEL-2; format: functional; conditions: Homo sapiens
[58] = test system: NCI-H23; assay: Compound tested for growth inhibition of non-small cell lung cancer cell line NCI-H23; format: functional; conditions: Homo sapiens
[59] = test system: NCI/ADR-RES; assay: Compound tested for growth inhibition of breast cancer cell line NCI/ADR-RES; format: functional; conditions: Homo sapiens

C[Si](C)(C)C#Cc1cc(-c2nc3ccccc3s2)ccc1N
GI50 [1]: 560 nM | GI50 [2]: 710 nM

C[Si](C)(C)C#Cc1cc(-c2nc3cc(F)ccc3s2)ccc1N
GI50 [1]: 210 nM | GI50 [2]: 160 nM

C[Si](C)(C)C#Cc1cc(-c2nc3c(F)cccc3s2)ccc1N
GI50 [1]: 230 nM | GI50 [2]: 520 nM

Nc1ccc(-c2nc3ccccc3s2)cc1
IC50 [3]: < 1 nM | IC50 [4]: < 1 nM

C#Cc1cc(-c2nc3ccccc3s2)ccc1N
GI50 [1]: 15 nM | GI50 [2]: 49 nM

C[Si](C)(C)C#Cc1cc(-c2nc3ccc(F)cc3s2)ccc1N
GI50 [1]: 400 nM | GI50 [2]: 680 nM

C#Cc1cc(-c2nc3cc(F)ccc3s2)ccc1N
GI50 [1]: 6.8 nM | GI50 [2]: 11 nM

C#Cc1cc(-c2nc3c(F)cccc3s2)ccc1N
GI50 [1]: 30 nM | GI50 [2]: 110 nM

N#Cc1cc(-c2nc3ccccc3s2)ccc1N
GI50 [1]: 340 nM | GI50 [2]: 580 nM

N#Cc1cc(-c2nc3cc(F)ccc3s2)ccc1N
GI50 [5]: 28200 nM | GI50 [6]: > 100000 nM | GI50 [7]: 2400 nM | GI50 [8]: 8510 nM | GI50 [9]: 6610 nM | GI50 [10]: > 100000 nM | GI50 [11]: 8510 nM | GI50 [12]: < 10 nM | GI50 [13]: > 100000 nM | GI50 [14]: < 10 nM | GI50 [15]: 389 nM | GI50 [16]: 214 nM | GI50 [17]: 12000 nM | GI50 [18]: 3800 nM | GI50 [19]: 28200 nM | GI50 [20]: > 100000 nM | GI50 [21]: 17000 nM | GI50 [22]: 8710 nM | GI50 [23]: 49000 nM | GI50 [24]: > 100000 nM | GI50 [25]: 97.7 nM | GI50 [26]: 14.4 nM | GI50 [27]: 7410 nM | GI50 [28]: 30.2 nM | GI50 [29]: 1380 nM | GI50 [30]: 537 nM | GI50 [31]: 16600 nM | GI50 [32]: > 100000 nM | GI50 [33]: > 100000 nM | GI50 [34]: > 100000 nM | GI50 [35]: 31600 nM | GI50 [36]: 8710 nM | GI50 [37]: < 10 nM | GI50 [38]: 11.5 nM | GI50 [39]: 24000 nM | GI50 [40]: > 100000 nM | GI50 [41]: 14500 nM | GI50 [42]: 20900 nM | GI50 [43]: 759 nM | GI50 [44]: 37.1 nM | GI50 [45]: 25700 nM | GI50 [1]: 7.8 nM | GI50 [46]: 51300 nM | GI50 [47]: 832 nM | GI50 [48]: < 10 nM | GI50 [2]: 5.7 nM | GI50 [49]: 9120 nM | GI50 [50]: > 100000 nM | GI50 [51]: > 100000 nM | GI50 [52]: > 100000 nM | GI50 [53]: 2630 nM | GI50 [54]: 15800 nM | GI50 [55]: > 100000 nM | GI50 [56]: 1620 nM | GI50 [57]: 13500 nM | GI50 [58]: < 10 nM | GI50 [59]: > 100000 nM

N#Cc1cc(-c2nc3c(F)cccc3s2)ccc1N
GI50 [1]: 80 nM | GI50 [2]: 180 nM

C#Cc1cc(-c2nc3ccc(F)cc3s2)ccc1N
GI50 [1]: 23 nM | GI50 [2]: 110 nM

N#Cc1cc(-c2nc3ccc(F)cc3s2)ccc1N
GI50 [1]: 320 nM | GI50 [2]: 820 nM

From ChEMBL document CHEMBL1136555, “Antitumour benzothiazoles. Part 20: 3'-cyano and 3'-alkynyl-substituted 2-(4'-aminophenyl)benzothiazoles as new potent and selective analogues” (Bioorg Med Chem Lett, 2003)
